# What was measured:
# Format in all cases: biochemical
# [1] = test system: fructosyl peptide oxidase; assay: Substrate specificity, pH profile and stability of fructosyl peptide oxidase-immobilized column (Example 1); details: normalized to 100 for the response to fructosyl valine at each pH, 30° C.; for Relative activity (%) pH 6.0: buffer pH 6.0; for Relative activity (%) pH 7.0: buffer pH 7.0; for Relative activity (%) pH 8.0: buffer pH 8.0
# Description: Firebrick powder (150 mg, 30 to 60 meshes) was thoroughly dried, immersed in a 10% solution of γ-aminopropyltriethoxysilane in anhydrous toluene for one hour, then thoroughly washed with anhydrous toluene and dried. The aminosilane-modified support was immersed in a 5% aqueous glutaraldehyde solution for one hour, and then thoroughly washed with distilled water, followed by substitution with 100 mM sodium phosphate buffer (pH 7.0). The buffer was removed as far as possible. A solution ([…]) of fructosyl peptide oxidase (140 units/mL, from Kikkoman Co.) in 100 mM sodium phosphate buffer (pH 7.0) was contacted with the formylated firebrick powder, and then incubated at 0 to 4° C. for one day for the enzyme immobilization. The support immobilized enzyme was packed into a column (internal diameter: 3.5 mm, length: 30 mm) to give the fructosyl peptide oxidase-immobilized column.
# The buffer was pumped out from a buffer tank (1) using a pump (2), and 5 μL of a sample was injected using a valve (4). A protease-immobilized column (14), a flow type calorimeter (16), a second immobilized enzyme column (19) and a second electrode for hydrogen peroxide (20) were not placed, and a fructosyl peptide oxidase-immobilized column was placed as a first immobilized enzyme column (17), followed by an electrode for hydrogen peroxide (18) downstream thereof. The injected sample transferred with the flowing buffer, passed through a mixing coil (15) inside an incubator (13), and thus the sample temperature was adjusted and the sample was mixed with the buffer. The sample passed through the fructosyl peptide oxidase-immobilized column (17) and the electrode for hydrogen peroxide (18) to produce hydrogen peroxide from fructosyl valylhistidine in the sample, and then the change of the current was detected.
# A composition of the buffer used in this assay apparatus contained 100 mM phosphoric acid, 50 mM potassium chloride and 1 mM sodium azide, and its pH was 7.0.
# (§1) The flow rate of the buffer was 1.0 mL/minute, and the temperature in the incubator was 30° C.
# Using the assay apparatus described in (3), a 5 μL portion of fructosyl glycine, fructosyl valine or fructosyl valylhistidine was injected, and the characteristics of the fructosyl peptide oxidase-immobilized column was examined.
# When pH of the buffer was 6.0, 7.0 or 8.0, the assay results of the activity for the oxidation of fructosyl glycine (FG), fructosyl valine (FV) or fructosyl valylhistidine (FVH) were shown in FIG. 3. For fructosyl glycine the activity was high at pH 8.0, but the activity at pH 6.0 was decreased to about 50% of that at pH 8.0. For fructosyl valine and fructosyl valylhistidine, the activity was high at pH 6.0 and 7.0.
# Response values in Table 1 were normalized to 100 for the response to fructosyl valine at each pH.
# [2] = test system: fructosyl amino acid oxidase; assay: Substrate specificity of fructosyl amino acid oxidase-immobilized column (Example 3); details: buffers pH 8.0; for Relative response value: normalized to 100 for the response to fructosyl glycine, 37° C., dialysis module
# Description: The buffer was removed as far as possible. […] The support immobilized enzyme was packed into the column (internal diameter: 3.5 mm, length: 30 mm) to give the fructosyl amino acid oxidase-immobilized column. In the assay apparatus shown in FIG. 2, the flow type calorimeter (16), the protease-immobilized column (14) and the first immobilized enzyme column (17) were not disposed, and the electrode for glucose was placed in the electrode for hydrogen peroxide (18), the fructosyl amino acid oxidase-immobilized column in the second immobilized enzyme column (19), and the electrode for hydrogen peroxide in the electrode for hydrogen peroxide (20). The buffer B was pumped out from the buffer tank (24) using the pump (25), and a 100 μL portion of the sample was injected using the valve (4). […] Since the buffer A was pumped out from the buffer tank (1) by the pump (2), the components with low molecular weight in the sample dialyzed in the dialysis module (27) passed through the electrode for glucose (18), the fructosyl amino acid oxidase-immobilized column (19) and the electrode for hydrogen peroxide (20), and hydrogen peroxide from glucose and fructosyl amino acid in the sample was detected. […] The temperature in the incubator was 37° C. The substrate specificity of fructosyl amino acid oxidase-immobilized column for various fructosyl amino acids, fructosyl peptides, amino acids and sugars was examined using the assay apparatus mentioned in (4) when pH of the buffers was 8.0.
# [3] = test system: fructosyl peptide oxidase; assay: Substrate specificity of fructosyl peptide oxidase-immobilized column (Example 4); details: buffer A pH 7.0; normalized to 100 for the response to fructosyl valine; 30° C.
# Description: In the same way as described in Example 1 (1), 150 mg of firebrick powder (30 to 60 meshes) was formylated. The solution (200 μL) of fructosyl peptide oxidase (140 units/mL, from Kikkoman Co.) in 100 mM sodium phosphate buffer (pH 7.0) was contacted with the formylated firebrick powder, and then incubated at 0 to 4° C. for one day for the enzyme immobilization.
# In the assay apparatus shown in FIG. 1, the protease-immobilized column (14), the flow type calorimeter (16) and the first immobilized enzyme column (17) were not disposed, and the electrode for glucose was placed in the electrode for hydrogen peroxide (18), the fructosyl peptide oxidase-immobilized column in the second immobilized enzyme column (19), and the electrode for hydrogen peroxide in the electrode for hydrogen peroxide (20). The buffer A was pumped out from the buffer tank (1) by the pump (2), and a 5 μL portion of the sample was injected using the valve (4). The injected sample transferred with the flowing buffer A, passed through the mixing coil (15) in the incubator (13), and thus the sample temperature was adjusted and the sample was mixed with the buffer. And then the sample passed through the downstream electrode for glucose (18), fructosyl peptide oxidase-immobilized column (19) and an electrode for hydrogen peroxide (20), hydrogen peroxide was produced from fructosyl valylhistidine in the sample, and the change of the current was detected.
# The composition of the buffer A for the assay apparatus contained 100 mM phosphoric acid, 50 mM potassium chloride and 1 mM sodium azide, and its pH was 7.0.
# as §1
# On fructosyl peptide oxidase-immobilized column, the substrate specificity for various fructosyl amino acids, fructosyl peptides, amino acids and sugars was examined using the assay apparatus mentioned in (4) when pH of the buffer A was 7.0. In the Table 4, the relative values were normalized to 100 for the response to fructosyl valine.
# [4] = test system: fructosyl amino acid oxidase; assay: Characteristics of fructosyl amino acid oxidase-immobilized column (Example 5); details: sample concentration 10 mM; buffer pH 8.0, 37° C.
# Description: FIG. 1 was the flow type assay apparatus with one flow path. The buffer A was pumped out from the buffer tank (1) using the pump (2), and a 5 μL portion of the sample was injected using the valve (4). The fructosyl amino acid oxidase-immobilized column was placed in the first immobilized enzyme column (17) and the electrode for hydrogen peroxide was placed downstream. The second immobilized enzyme column (19), the second electrode for hydrogen peroxide (20), the protease-immobilized column (14) and the flow type calorimeter (16) were not disposed. The injected sample transferred with the flowing buffer, passed through the mixing coil (15) in the incubator (13), and thus the sample temperature was adjusted and the sample was mixed with the buffer. The sample passed through the fructosyl amino acid oxidase-immobilized column (17) and the electrode for hydrogen peroxide (18), hydrogen peroxide was produced from fructosyl valine in the sample, and the change of the current was detected.
# The composition of the buffer for this assay apparatus contained 100 mM phosphoric acid, 50 mM potassium chloride and 1 mM sodium azide, and its pH was 8.0.
# The flow rate of the buffer was 1.0 mL/minute, and the temperature in the incubator was 37° C.
# Using the assay apparatus 1 mentioned in (3), a 5 μL portion of fructosyl glycine was injected, and the characteristics of the fructosyl amino acid oxidase-immobilized column was examined.
# When pH in the buffer was 7.0, 7.5, 8.0, 8.5 or 9.0, the activity in the oxidation of fructosyl glycine was measured.
SMILES,Relative activity (%) pH 6.0 [1] [%],Relative activity (%) pH 7.0 [1] [%],Relative activity (%) pH 8.0 [1] [%],response of fructosyl amino acid oxidase-immobilized column [2],Relative response value [2],Relative response value [3],Relative activity (%) [4] [%]
NC(=O)CC[C@H](N)C(=O)O [Gln],0,0,0,extremely small responses,0.2,0.0,6.0
N[C@@H](CCC(=O)O)C(=O)O [Glu],0,0,0,–,0.0,0.0,0.0
O=C[C@H](O)[C@@H](O)[C@@H](O)[C@H](O)CO [Galactose],0,0,0,–,0.0,0.0,0.0
CSCC[C@H](N)C(=O)O [Met],0,0,0,extremely small responses,0.1,0.0,8.0
NCC(=O)O [Gly],0,0,0,–,0.0,0.0,0.0
CC(C)[C@H](N)C(=O)O [Val],0,0,0,–,0.0,0.0,0.0

# Reference: patent US8128802B2, “Analysis apparatus and analysis method for glycosylated hemoglobin” (OJI Paper Co., Ltd, priority 2005, dated 2012)
